Data as given in PubChem BioAssay (NCI).
Several values for one entry are separate records, joined by “and”; a condition that tells them apart may be missing. Identical values can stand only once.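 Test compounds were applied to cells in 96-well plates for 48 hours at 5 doses. The concentration for 50% growth inhibition is given as GI50. At the TGI there is no net growth.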

Experiments:
Assay in all cases: NCI tumour cell line growth inhibition, 48 h
DMS 114 small cell lung = system: DMS 114 small cell lung
DMS 273 small cell lung = system: DMS 273 small cell lung
SNB-78 CNS = system: SNB-78 CNS
KM20L2 colon = system: KM20L2 colon
DLD-1 colon = system: DLD-1 colon
HOP-18 NSCLC = system: HOP-18 NSCLC
RXF-631 renal = system: RXF-631 renal
M19-MEL melanoma = system: M19-MEL melanoma
MDA-N = system: MDA-N
SN12K1 renal = system: SN12K1 renal

Structure (SMILES) | TGI (DMS 114 small cell lung) [µM] | TGI (DMS 273 small cell lung) [µM] | TGI (SNB-78 CNS) [µM] | TGI (KM20L2 colon) [µM] | TGI (DLD-1 colon) [µM] | TGI (HOP-18 NSCLC) [µM] | TGI (RXF-631 renal) [µM] | TGI (M19-MEL melanoma) | TGI (MDA-N) [µM] | also measured
COCCOCC(=O)N(CCn1ccc(NC(c2ccccc2)(c2ccccc2)c2ccccc2)nc1=O)CCn1cnc2nc(N)[nH]c(=O)c21 | > 100 | > 100 | > 100 | > 100 | > 100 | > 100 | > 100 |  |  | 
CC1=C(c2cc(C(=O)Nc3cccc(C(F)(F)F)c3)ncn2)Sc2ccccc2N1 | > 100 | > 100 |  | > 100 | > 100 | > 100 |  | > 100 µM |  | 
CCc1nc(Cl)nc(Cl)c1Cl |  |  |  |  |  |  |  |  | 15.2 | 
COc1ccc(/C(=N/NC(N)=O)C(c2ccc(OC)cc2)C2C(=O)Oc3ccccc32)cc1 (stereo not drawn) | > 100 | > 100 | > 100 | > 100 | > 100 |  | > 100 | > 100 µM |  | 
CC(C)(C)C(=O)O[C@@H]1COC2C(O)COC21 (stereo partly drawn) | > 100 | > 100 | > 100 |  | > 100 | > 100 | > 100 | > 100 µM |  | 
COc1ccc(-c2cc(=O)c3c(O)cc(C)cc3o2)cc1OC |  |  |  |  |  |  |  |  | > 100 | 
O=C1c2c(O)cc(O)cc2OC(c2ccc(O)cc2O)C1O (stereo not drawn) |  |  |  |  |  |  |  |  | > 100 | 
COc1cc(-c2cc(=O)c3cc(C)c(C)c(C(=O)O)c3o2)cc(OC)c1OC | > 100 | > 100 | > 100 | > 100 | > 100 |  | > 100 | > 100 µM |  | 
COC1=Nc2ccccc2S(=O)(=O)C=C1 |  |  |  |  |  |  |  |  | 20.8 | 
Cc1ccc2[nH]c3c(ncc4[nH]c5ccccc5c43)c2c1 | 31.3 |  | 32.6 | 31.8 | 31 | 28.1 |  |  |  | 
CCC(C(=O)[O-])C(=O)[O-].CCC(C(=O)[O-])C(=O)[O-].N.N.NCCCCCCN.[Pt+4].[Pt+4] |  | 16.4 | 29 | 29 | 13.9 | 11.5 |  |  |  | GI50 (DMS 273 small cell lung): 8.32 µM; GI50 (SNB-78 CNS): 10.7 µM; GI50 (KM20L2 colon): 15 µM; GI50 (DLD-1 colon): 3.79 µM; GI50 (HOP-18 NSCLC): 4.92 µM
Cc1cc(C)c(S(=O)(=O)ONC(=O)OC(C)(C)C)c(C)c1 |  | > 100 | > 100 |  | > 100 |  | > 100 | > 100 µM |  | 
CNC1C(O)C(OC2C(N)CC(N)C(OC3OC(C(C)O)C(O)C(O)C3N)C2O)OCC1(C)O (stereo not drawn) |  |  |  |  |  |  |  |  | > 100 | 
O=C(NNC(=O)c1cc(/C=C/c2cccc([N+](=O)[O-])c2)[nH]c(=S)n1)Nc1ccc(Cl)cc1 | 97.4 | > 100 | > 100 | > 100 | 47.8 | > 100 |  | > 100 µM |  | 
Cc1nc(Nc2ccc([N+](=O)[O-])cc2)sc1C(/C=C/c1ccc(N(C)C)cc1)=N/NC(=O)c1ccccc1 | > 100 |  | > 100 | > 100 | > 100 | > 100 | > 100 | > 100 µM |  | 
c1ccc(COCC2OC3c4ccccc4COC3C2OCc2ccccc2)cc1 (stereo not drawn) | > 100 | > 100 | > 100 | > 100 | > 100 | > 100 | > 100 | > 100 µM |  | 
C[C@H]1C(Oc2ccc(O)cc2)OC2OC3(C)CCC4[C@H](C)CCC1C24OO3 (stereo partly drawn) |  |  |  |  |  |  |  |  | 26.4 | GI50 (MDA-N): 11.1 µM
N#CC1(C=O)c2ccccc2C=CN1C(=O)c1ccccc1 (stereo not drawn) | 49 | > 100 | > 100 | > 100 |  | > 100 | > 100 | > 100 µM |  | 

Structure (SMILES) | TGI (DMS 114 small cell lung) [µM] | TGI (DMS 273 small cell lung) [µM] | TGI (SNB-78 CNS) [µM] | TGI (KM20L2 colon) [µM] | TGI (DLD-1 colon) [µM] | TGI (HOP-18 NSCLC) [µM] | TGI (RXF-631 renal) [µM] | TGI (M19-MEL melanoma) | TGI (MDA-N) [µM] | also measured
O=C([O-])c1ccc(C(=O)[O-])cc1.O=C([O-])c1ccc(C(=O)[O-])cc1.[Mo+2].[Mo+2] |  | > 100 | > 100 | > 100 | > 100 | > 100 | > 100 | > 100 µM |  | GI50 (M19-MEL melanoma): > 100 µM; GI50 (DMS 273 small cell lung): > 100 µM; GI50 (SNB-78 CNS): > 100 µM; GI50 (KM20L2 colon): > 100 µM; GI50 (DLD-1 colon): > 100 µM; GI50 (HOP-18 NSCLC): > 100 µM; GI50 (RXF-631 renal): > 100 µM
O=C1/C(=C/c2ccccc2)CN(C(=O)OCc2ccccc2)C/C1=C\c1ccccc1 | 21 | 14.3 | 25.4 | 18.9 | 14.2 |  | > 31.6 | 7 µM and 13.6 µM | 13.1 | GI50 (M19-MEL melanoma): 2.01 µM; GI50 (DMS 114 small cell lung): 4.26 µM; GI50 (DMS 273 small cell lung): 2.62 µM; GI50 (DLD-1 colon): 4.14 µM
Cn1c2c(c3ccccc31)CCN(CCCCN1CCN(c3cccc(Cl)c3)CC1)C2=O | 10.7 | 22.9 | 27.8 | 15.5 | 25.1 | > 100 |  | 25.5 µM |  | 
CC(=O)[O-].O=C([CH-]C(=O)c1ccccc1)c1ccccc1.O=C([CH-]C(=O)c1ccccc1)c1ccccc1.[Y+3] |  |  |  | 26.3 |  |  |  |  |  | GI50 (KM20L2 colon): 6.51 µM
NC(=O)/C=C/NC(=O)/C=N\O |  |  |  |  |  |  |  |  | > 100 | 
CCc1nc(N)nc(N)c1-c1ccc(NCCc2ccccc2)c([N+](=O)[O-])c1 |  |  |  |  |  |  |  |  | > 57.5 | 
O=C1C2c3[nH]c4ccccc4c3[C@@H]3CCCCC3C2C(=O)N1c1ccccc1 (stereo partly drawn) | 58.4 | 35.3 | 72 |  | 92.4 |  | 34.2 | 34.8 µM |  | 
O=[N+]([O-])c1ccc(Sc2c3ccccc3nc3ccccc23)nc1 |  |  |  |  |  |  |  |  | 17.6 | 
O=C(CC(=O)C1CCOC1=O)C(=O)Nc1ccc(Cl)cc1Cl (stereo not drawn) | > 100 | > 100 | > 100 | > 100 | > 100 |  |  | > 100 µM |  | 
O=C(NCCCCCCCCNC(=O)c1cccc2ccccc12)c1cccc2ccccc12 | > 100 | > 100 | 48.3 | > 100 | > 100 | > 81.4 | > 82 | > 100 µM | > 100 | 
CCCCCCCCCCCCN(O)C(=O)c1ccccc1 |  |  |  | > 100 | > 100 | > 100 |  | > 100 µM |  | 
CSc1ccc(/C=C/c2ccnc3ccccc23)cc1 |  |  |  |  |  |  |  |  | 27 | 
CN(C)c1ccc(/C=N\N2C(=O)c3ccccc3C2=O)cc1 | > 100 | > 100 | > 100 | > 100 | > 100 | > 100 |  | > 100 µM |  | 
CC/C(C)=C1\OC(=O)C(C)C(O)C(Cc2cccnc2)NC(=O)C(NC(=O)c2ncccc2O)C(C)OC1=O (stereo not drawn) |  |  |  |  |  |  |  |  | > 100 | 
CCOC(=O)NC(=O)c1cn(CCN2CCN(C(=O)CCCCCCCCCCNc3ncnc4nc[nH]c34)CC2)c(=O)[nH]c1=O |  | > 100 | > 100 | > 100 | > 100 | > 100 |  | > 100 µM |  | 
Nc1nc(N)c2nc(CNc3ccc(C(=O)NC(CCCNC(=O)c4ccccc4C(=O)O)C(=O)O)cc3)cnc2n1 (stereo not drawn) | > 100 | > 100 | > 100 | > 100 | > 100 | > 100 |  | > 100 µM | > 100 | GI50 (M19-MEL melanoma): 0.122 µM; GI50 (DMS 114 small cell lung): < 0.01 µM and 0.000327 µM; GI50 (MDA-N): 0.00127 µM; TGI (SN12K1 renal): > 100 µM; GI50 (HOP-18 NSCLC): 24.8 µM and 98 µM
CCCCCC/C=C\CCCCCCCCCC1=CC(=O)C=C(OC)C1=O |  |  |  |  |  |  |  |  | 21.8 | 
COC12CC(=O)C(C(C)=O)=C(O)C1(C)c1c(OC(C)=O)c(C)c(O)c(C(C)=O)c1O2 (stereo not drawn) | > 100 |  | > 100 | > 100 |  | 51.9 | > 100 | > 100 µM |  | 
